The nature of the data set: pKa of curing accelerator (dissociation constant of aqueous solution at 25° C.). In kind it is physicochemical. On the procedure:
The “pKa value” referred to in the invention is a numerical value represented by the following formula when the dissociation constant of an aqueous solution at 25° C. is denoted by “Ka”. The dissociation constant Ka of the aqueous solution is determined by, for example, measuring a hydrogen ion concentration of the aqueous solution by a pH meter and calculating concentrations of a dissociated component and an undissociated component after dissolution by the use of the resulting hydrogen ion concentration and weighed values of the solvate and water before dissolution. pKa=−log10 Ka

The mark [1] stands for this setting: aqueous solution at 25° C., values in text.
The mark [2] stands for this setting: aqueous solution, of the curing accelerator, Table 1, read-out: pKa.

Several values for one entry are separate records, joined by “and”; a condition that tells them apart may be missing. Identical values can stand only once. Like-named read-outs stand apart in the source and are kept apart here.

With `Cc1ncc[nH]1` [2-methylimidazole], the pKa (commonly the negative logarithm of the acid dissociation constant) stood at 7.9 under setting [1]; 7.88 (aqueous solution, aqueous solution at 25° C., values in text, read-out: pKa); 7.9 under setting [2].

With `C1CCC2=NCCCN2CC1` [DBU, 1,8-diazabicyclo[5.4.0]undecene-7], the pKa is, setting by setting: under setting [1], 12.5; (of the curing accelerator, Table 1) 12.7 and 12.5.

Turning to `Nc1nc(N)nc(N)n1` [melamine], the pKa by setting is: (aqueous solution at 25° C., values in text, read-out: pKa) 5; under setting [2], 5.

(Values after patent publication US8420216B2, “Thermosetting resin composition” (Showa Denko K.K., priority 2007, dated 2013).)
